The values that follow come from patent US9540343B2 (Gilead Sciences, Inc., priority 2011, dated 2017).

Each structure is given as a SMILES string. A value given as a limit tells only on which side of the number the result lay.

The nature of one series: in vitro. As to conditions: human, uninfected MT-4 cells, CC50 (nM), same protocol as Test A, CellTiter-Glo. In short, it runs like this: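 Cytoprotection read-out: CellTiter-Glo chemiluminescence after 5 days at 37 °C of HIV-IIIb-infected MT-4 cells (m.o.i. 0.003) with compound in 10-point 3-fold dilutions, quadruplicate, 10% FBS. Cytotoxicity (CC50) measured identically without virus.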

A further series has as its system HIV-IIIb. The experiment in a line: Test A: Antiviral assay in MT4 cells. The series is classed as cell-based, HIV-1. The note with it: MT-4 cells infected with HIV-IIIb, 5 days, CellTiter-Glo; for inhibition at 2 µM: Human immunodeficiency virus 1, IIIB, MT4, 120 h, read-out: % inhibition at 2 μM, percent inhibition of virus-induced cell killing, from dose response curve at 2 uM drug.

Turning to `NC(=O)c1cc(-c2cccnc2[C@H](Cc2cc(F)cc(F)c2)NC(=O)C2CCCN2Cc2ccccc2)ccc1F` (stereo partly drawn) [Example 166, 1-benzyl-N—((S)-1-(3-(3-carbamoyl-4-fluorophenyl)pyridin-2-yl)-2-(3,5-difluorophenyl)ethyl)pyrrolidine-2-carboxamide], the CC50 (as a rule, the concentration giving 50% cytotoxicity) at 5 days in “in vitro” was found to be 6360 nM. In the series on HIV-IIIb, the inhibition (in general, the change of the read-out against control, counted positive when it falls) at 2 µM is 0%.

As for `NC(=O)c1cc(-c2cccnc2[C@H](Cc2cc(F)cc(F)c2)NC(=O)[C@@H]2CC(=O)CN2)ccc1F` [Example 167, (S)—N—((S)-1-(3-(3-carbamoyl-4-fluorophenyl)pyridin-2-yl)-2-(3,5-difluorophenyl)ethyl)-4-oxopyrrolidine-2-carboxamide], the CC50 at 5 days in “in vitro” was over 53000 nM. For the same compound, in the series with HIV-IIIb, the inhibition at 2 µM amounted to 0%.

For the compound `NC(=O)c1cc(-c2cccnc2[C@H](Cc2cc(F)cc(F)c2)NC(=O)Cn2nc(C(F)(F)F)cc2C2CCCC2)ccc1F` [Example 168B, (S)-5-(2-(1-(2-(5-cyclopentyl-3-(trifluoromethyl)-1H-pyrazol-1-yl)acetamido)-2-(3,5-difluorophenyl)ethyl)pyridin-3-yl)-2-fluorobenzamide], half-maximal cytotoxicity in the series “in vitro” (CC50 at 5 days) was put at 11100 nM. Further, in the series on HIV-IIIb, the inhibition at 2 µM worked out at 21%.

For the compound `CCn1c(=O)c2c(n1CC(=O)N[C@@H](Cc1cc(F)cc(F)c1)c1ncccc1-c1ccc(F)c(C(N)=O)c1)CCCC2` [Example 170C, (S)-5-(2-(2-(3,5-difluorophenyl)-1-(2-(2-ethyl-3-oxo-2,3,4,5,6,7-hexahydro-1H-indazol-1-yl)acetamido)ethyl)pyridin-3-yl)-2-fluorobenzamide], the CC50 at 5 days in “in vitro” is over 53200 nM. Moreover, in the series with HIV-IIIb, the inhibition at 2 µM stood at 22%.

`CC(C)(C)OC(=O)N1CCC[C@H]1C(=O)N[C@@H](Cc1cc(F)cc(F)c1)c1ncccc1-c1ccc(F)c(C(N)=O)c1` [Example 171, (S)-tert-butyl 2-((S)-1-(3-(3-carbamoyl-4-fluorophenyl)pyridin-2-yl)-2-(3,5-difluorophenyl)ethylcarbamoyl)pyrrolidine-1-carboxylate]: the CC50 at 5 days in “in vitro” amounted to 11900 nM. Besides, the inhibition at 2 µM in the series with HIV-IIIb was 4%.

In the series “in vitro”, `O=C(Cn1nc(C(F)F)c2c1C(F)(F)C1CC21)N[C@@H](Cc1cc(F)cc(F)c1)c1ncncc1-c1cnc2[nH]ccc2c1` (stereo partly drawn) [Example 172D, N—((S)-1-(5-(1H-pyrrolo[2,3-b]pyridin-5-yl)pyrimidin-4-yl)-2-(3,5-difluorophenyl)ethyl)-2-(3-(difluoromethyl)-5,5-difluoro-3b,4,4a,5-tetrahydro-1H-cyclopropa[3,4]cyclopenta[1,2-c]pyrazol-1-yl)acetamide] returned a CC50 at 5 days of 22100 nM. Moreover, the inhibition at 2 µM with HIV-IIIb came out at 104%.

In turn, `NC(=O)c1cc(-c2cccnc2[C@H](Cc2cc(F)cc(F)c2)NC(=O)[C@@H]2CCCN2)ccc1F` [Example 175, (S)—N—((S)-1-(3-(3-carbamoyl-4-fluorophenyl)pyridin-2-yl)-2-(3,5-difluorophenyl)ethyl)pyrrolidine-2-carboxamide] gave a CC50 at 5 days in “in vitro” of over 53000 nM. Also, in the series with HIV-IIIb, the inhibition at 2 µM stood at 1%.

Consider `O=C(Cn1nc(C(F)F)c2c1C(F)(F)C1CC21)N[C@@H](Cc1cc(F)cc(F)c1)c1ncncc1-c1cnc2[nH]ncc2c1` (stereo partly drawn) [Example 176C, N—((S)-1-(5-(1H-pyrazolo[3,4-b]pyridin-5-yl)pyrimidin-4-yl)-2-(3,5-difluorophenyl)ethyl)-2-(3-(difluoromethyl)-5,5-difluoro-3b,4,4a,5-tetrahydro-1H-cyclopropa[3,4]cyclopenta[1,2-c]pyrazol-1-yl)acetamide], for which the midpoint of cytotoxicity in the series “in vitro”, the CC50 at 5 days, lay at 46500 nM. Moreover, the inhibition at 2 µM with HIV-IIIb turned out to be 59%.

`NC(=O)c1cc(-c2cccnc2[C@H](Cc2cc(F)cc(F)c2)NC(=O)[C@@H]2C[C@H](c3ccccc3)CN2)ccc1F` [Example 177, (2S,4R)—N—((S)-1-(3-(3-carbamoyl-4-fluorophenyl)pyridin-2-yl)-2-(3,5-difluorophenyl)ethyl)-4-phenylpyrrolidine-2-carboxamide] gave a CC50 at 5 days in “in vitro” of 51700 nM. Besides, the inhibition at 2 µM in the series on HIV-IIIb worked out at 0%.

Compound `NC(=O)c1cc(-c2cccnc2[C@H](Cc2cc(F)cc(F)c2)NC(=O)[C@@H]2C[C@@H](O)CN2)ccc1F` [Example 178, (2S,4R)—N—((S)-1-(3-(3-carbamoyl-4-fluorophenyl)pyridin-2-yl)-2-(3,5-difluorophenyl)ethyl)-4-hydroxypyrrolidine-2-carboxamide] showed a CC50 at 5 days in “in vitro” of over 53000 nM. In the series with HIV-IIIb, the inhibition at 2 µM turned out to be 0%.

Take `CCOc1nn(CC(=O)N[C@@H](Cc2cc(F)cc(F)c2)c2ncccc2-c2ccc(F)c(C(N)=O)c2)c2c1CCCC2` [Example 179C, (S)-5-(2-(2-(3,5-difluorophenyl)-1-(2-(3-ethoxy-4,5,6,7-tetrahydro-1H-indazol-1-yl)acetamido)ethyl)pyridin-3-yl)-2-fluorobenzamide]: the CC50 at 5 days in the series “in vitro” was determined as 22300 nM. For the same compound, in the series on HIV-IIIb, the inhibition at 2 µM was determined as 52%.

In the case of `NC(=O)c1cc(-c2cncnc2[C@H](Cc2cc(F)cc(F)c2)NC(=O)Cn2nc(C(F)F)c3c2C(F)(F)C2CC32)ccc1F` (stereo partly drawn) [Example 180, 5-(4-((1S)-1-(2-(3-(difluoromethyl)-5,5-difluoro-3b,4,4a,5-tetrahydro-1H-cyclopropa[3,4]cyclopenta[1,2-c]pyrazol-1-yl)acetamido)-2-(3,5-difluorophenyl)ethyl)pyrimidin-5-yl)-2-fluorobenzamide], the CC50 at 5 days in “in vitro” was over 50400 nM. Moreover, in the series on HIV-IIIb, the inhibition at 2 µM is 93%.

In the series “in vitro”, `NC(=O)c1cc(-c2cccnc2[C@H](Cc2cc(F)cc(F)c2)NC(=O)[C@@H]2CC[C@H](c3ccccc3)N2)ccc1F` [Example 182, (2S,5R)—N—((S)-1-(3-(3-carbamoyl-4-fluorophenyl)pyridin-2-yl)-2-(3,5-difluorophenyl)ethyl)-5-phenylpyrrolidine-2-carboxamide] came in with a CC50 at 5 days of 51000 nM. The inhibition at 2 µM in the series on HIV-IIIb stood at 8%.

Consider `NC(=O)c1cc(-c2cccnc2[C@H](Cc2cc(F)cc(F)c2)NC(=O)[C@H]2CC[C@@H](c3ccccc3)N2)ccc1F` [Example 183, (2R,5S)—N—((S)-1-(3-(3-carbamoyl-4-fluorophenyl)pyridin-2-yl)-2-(3,5-difluorophenyl)ethyl)-5-phenylpyrrolidine-2-carboxamide], for which the midpoint of cytotoxicity in “in vitro”, the CC50 at 5 days, lay at 35200 nM. In addition, the inhibition at 2 µM in the series on HIV-IIIb is 0%.

As to `Cc1[nH]nc(-c2ccccc2)c1CC(=O)N[C@@H](Cc1cc(F)cc(F)c1)c1ncccc1-c1ccc(F)c(C(N)=O)c1` [Example 184, (S)-5-(2-(2-(3,5-difluorophenyl)-1-(2-(5-methyl-3-phenyl-1H-pyrazol-4-yl)acetamido)ethyl)pyridin-3-yl)-2-fluorobenzamide], half-maximal cytotoxicity in “in vitro” (CC50 at 5 days) was put at 43200 nM. The inhibition at 2 µM in the series on HIV-IIIb turned out to be 5%.

In the case of `O=C(Cn1nc(C(F)F)c2c1C(F)(F)C1CC21)N[C@@H](Cc1cc(F)cc(F)c1)c1ncncc1-c1cccc2cnccc12` (stereo partly drawn) [Example 185C, 2-(3-(difluoromethyl)-5,5-difluoro-3b,4,4a,5-tetrahydro-1H-cyclopropa[3,4]cyclopenta[1,2-c]pyrazol-1-yl)-N—((S)-2-(3,5-difluorophenyl)-1-(5-(isoquinolin-5-yl)pyrimidin-4-yl)ethyl)acetamide], the CC50 at 5 days in “in vitro” came out at 26500 nM. For the same compound, the inhibition at 2 µM in the series with HIV-IIIb is 94%.

In the case of `NC(=O)c1cc(-c2cccnc2[C@H](Cc2cc(F)cc(F)c2)NC(=O)[C@H]2COCCN2)ccc1F` [Example 188, (R)—N—((S)-1-(3-(3-carbamoyl-4-fluorophenyl)pyridin-2-yl)-2-(3,5-difluorophenyl)ethyl)morpholine-3-carboxamide], in “in vitro”, the CC50 at 5 days is over 53000 nM. In addition, in the series on HIV-IIIb, the inhibition at 2 µM stood at 0%.

In the case of `NC(=O)c1cc(-c2cccnc2[C@H](Cc2cc(F)cc(F)c2)NC(=O)Cn2nc(C(F)(F)F)c3c2CSC3)ccc1F` [Example 189D, (S)-5-(2-(2-(3,5-difluorophenyl)-1-(2-(3-(trifluoromethyl)-4,6-dihydro-1H-thieno[3,4-c]pyrazol-1-yl)acetamido)ethyl)pyridin-3-yl)-2-fluorobenzamide], the 50% cytotoxic concentration (CC50) at 5 days in “in vitro” is 23300 nM. Besides, the inhibition at 2 µM in the series with HIV-IIIb came to 48%.

`NC(=O)c1cccc(-c2cccnc2[C@H](Cc2cc(F)cc(F)c2)NC(=O)CC2C(=O)Nc3ccccc32)c1` (stereo partly drawn) [Example 191, 3-(2-((1S)-2-(3,5-difluorophenyl)-1-(2-(2-oxoindolin-3-yl)acetamido)ethyl)pyridin-3-yl)benzamide] returned a CC50 at 5 days in “in vitro” of over 50900 nM. Besides, in the series with HIV-IIIb (percent inhibition of virus-induced cell killing, from dose response curve at 2 uM drug), the % inhibition (in general, how much of the control response was suppressed) at 2 μM is listed as 19%.

In turn, `Cc1ccc2c(c1)C(CC(=O)N[C@@H](Cc1cc(F)cc(F)c1)c1ncccc1-c1ccc(F)c(C(N)=O)c1)C(=O)N2` (stereo partly drawn) [Example 193, 5-(2-((1S)-2-(3,5-difluorophenyl)-1-(2-(5-methyl-2-oxoindolin-3-yl)acetamido)ethyl)pyridin-3-yl)-2-fluorobenzamide] yielded a CC50 at 5 days in the series “in vitro” of over 53200 nM. Besides, the inhibition at 2 µM in the series on HIV-IIIb was determined as 2%.

Consider `NC(=O)c1cc(-c2cccnc2[C@H](Cc2cc(F)cc(F)c2)NC(=O)Cn2nc(C(F)(F)F)c3c2CS(=O)(=O)C3)ccc1F` [Example 194, (S)-5-(2-(2-(3,5-difluorophenyl)-1-(2-(5,5-dioxido-3-(trifluoromethyl)-4,6-dihydro-1H-thieno[3,4-c]pyrazol-1-yl)acetamido)ethyl)pyridin-3-yl)-2-fluorobenzamide], for which, in “in vitro”, the CC50 at 5 days is over 53200 nM. Moreover, the inhibition at 2 µM in the series on HIV-IIIb amounted to 11%.

With `COCc1ccc(-c2cccnc2[C@H](Cc2cc(F)cc(F)c2)NC(=O)Cn2nc(C(F)F)c3c2C(F)(F)C2CC32)cc1` (stereo partly drawn) [Example 195, 2-(3-(difluoromethyl)-5,5-difluoro-3b,4,4a,5-tetrahydro-1H-cyclopropa[3,4]cyclopenta[1,2-c]pyrazol-1-yl)-N—((S)-2-(3,5-difluorophenyl)-1-(3-(4-(methoxymethyl)phenyl)pyridin-2-yl)ethyl)acetamide], the half-maximal cytotoxic concentration (CC50) at 5 days in “in vitro” is 23000 nM. Moreover, the inhibition at 2 µM in the series with HIV-IIIb amounted to 85%.
